This is an account of results in patent US20100204135A1, “USE OF LVV-HEMORPHIN-6 AND OPTIONALLY AF12198 AS THERAPEUTIC AGENT(S)” (priority 2007, published 2010).

The test system of the assay is drug-resistant Mycobacterium tuberculosis. Kind of assay: Mycobacterium tuberculosis assay. In kind it is cell-based.

Where no end group is shown, it is not given here.

For “Leu-Val-Val-Tyr-Pro-Trp-Thr-Gln-Arg-OH (LVVYPWTQR-OH) [Peptide 1]”, the “inhibition of the growth of Mycobacterium tuberculosis” value was 100%.
Take “Phe-Glu-Trp-Thr-Pro-Gly-Tyr-Trp-Gln-Pro-Tyr-Ala-Leu-Pro-Leu-OH (FEWTPGYWQPYALPL-OH) [Peptide 2]”: the “inhibition of the growth of Mycobacterium tuberculosis” value is given as 100%.
